Data: patent US20040029965A1, “Formulations for reducing or eliminating toxicity of enviromental hormones containing ursodeoxycholic acid” (priority 2000, published 2004)
Marks after values point to notes of the source that are not given here.

Legend:
C57B1/6J mice [1] = assay: Feed uptake of mice after a single subcutaneous injection of TCDD; assay type: in vivo; set-up: unit not given here
Method: (§1) Male C57B1/6J mice of 5 weeks old having the average weight of 18-22 g which had been bred in CRJ (Charles River in Japan) were purchased and used in this example as experimental animals. Those mice were acclimated under the constant breeding condition, i.e. the temperature of 24±1° C., the humidity of 60±10% and the light and darkness cycle of 12 hours, for one week and thereafter, utilized in the experiment.
The Experimental animals were supplied with Purina powdered feed (purchased from Hae Eun Trade) and supplied with water ad libitum. All the animals were weighed twice a week during experimentation.
(§2) 2,3,7,8-tetrachlorodibenzo-p-dioxin (TCDD) dissolved in toluene (purity of 95% or more as a result of gas chromatography analysis), manufactured by Chem. Services Inc. in USA, was volatilized with nitrogen to obtain powder. The obtained powder was dissolved in a mixed solvent containing acetone and corn oil with a volume ratio of 1:6. The resulting solution each containing 110, 27.5 and 6.9 μg/kg of TCDD was subcutaneously injected to mice at a volume of 5 ml per body weight. […] The mice were supplied with the feed from 10 days before (pre-administration) to 60 days after administration of TCDD (post-administration).
(§3) The results are expressed as Mean±Standard Deviation values. For statistical analysis of the body weight, feed and water uptake, biochemical findings, hematological findings and the weight of organ in an acute toxicity test, verification was performed by one way analysis of variance (ANOVA) in case of equal distribution. In case significance was recognized in ANOVA, the Student's t-test was performed in the levels of p<0.05 and p<0.01.

C57B1/6J mice [2] = assay: Hematological changes in mice by a single subcutaneous injection of TCDD; assay type: in vivo; set-up: NEU / LYM / PLT: unit not given here
Method: as §1, §2
Upon completion of the experiment for 60 days, the experimental animals were fasted for 24 hours and anesthetized with ether. Then, they were abdominally incised and blood was gathered from abdominal vena cava. They were sacrificed by the release of blood. Liver, kidneys, testes and epididymides were extracted and all the extracted organs were weighed. Only the testes were separately kept and observed under optical and electron microscopes. For biochemical finding test, serum was separated from blood with a centrifuge and the separated serum was analyzed with an automated blood biochemical analyzer, Dimension (Dupont, USA). Blood was put to another blood gathering bottle and then, analyzed with an automated blood cell analyzer, Celldyn (Abbott, USA).
as §3
For hematological findings, white blood cell (WBC), neutrophil (NEU), lymphocyte (LYM), monocyte (MONO), eosinophil (EOS), basophil (BASO) and red blood cell (RBC) counts, and hemoglobin concentration (HGB), hematocrit (HCT), mean cell volume (MCV), mean corpuscular hemoglobin (MCH), mean corpuscular hemoglobin concentration (MCHC), red blood cell distribution width (RDW) and platelet count (PLT) were measured and the results are as follows.

For `Clc1cc2c(cc1Cl)Oc1cc(Cl)c(Cl)cc1O2` [TCDD, 2,3,7,8-tetrachlorodibenzo-p-dioxin], the feed uptake (C57B1/6J mice [1]; TCDD 6.9 μg/kg alone, 10 days) was 4.76 ± 0.74, the feed uptake (C57B1/6J mice [1]; TCDD 6.9 μg/kg alone, 20 days) was 4.33 ± 0.84 and the feed uptake (C57B1/6J mice [1]; TCDD 6.9 μg/kg alone, 30 days) was 4.97 ± 1.00. The feed uptake (C57B1/6J mice [1]; TCDD 6.9 μg/kg alone, 40 days) was 4.97 ± 1.00, the feed uptake (C57B1/6J mice [1]; TCDD 6.9 μg/kg alone, 50 days) was 3.51 ± 0.31 and the feed uptake (C57B1/6J mice [1]; TCDD 6.9 μg/kg alone, 60 days) was 3.28 ± 1.56. The feed uptake (C57B1/6J mice [1]; TCDD 27.5 μg/kg alone, 10 days) was 3.86 ± 0.87, the feed uptake (C57B1/6J mice [1]; TCDD 27.5 μg/kg alone, 20 days) was 3.17 ± 1.68 and the feed uptake (C57B1/6J mice [1]; TCDD 27.5 μg/kg alone, 30 days) was 2.37 ± 0.37. It also gave a feed uptake (C57B1/6J mice [1]; TCDD 27.5 μg/kg alone, 40 days) of 1.90 ± 0.27, a feed uptake (C57B1/6J mice [1]; TCDD 27.5 μg/kg alone, 50 days) of 1.50 ± 0.16 and a feed uptake (C57B1/6J mice [1]; TCDD 27.5 μg/kg alone, 60 days) of 1.58 ± 0.32. The feed uptake (C57B1/6J mice [1]; TCDD 110.0 μg/kg alone, 10 days) was 4.19 ± 0.96, the feed uptake (C57B1/6J mice [1]; TCDD 110.0 μg/kg alone, 20 days) was 3.21 ± 1.13 and the feed uptake (C57B1/6J mice [1]; TCDD 110.0 μg/kg alone, 30 days) was 3.88 ± 0.96. For the same compound, the feed uptake (C57B1/6J mice [1]; TCDD 110.0 μg/kg alone, 40 days) was 2.23 ± 0.56, the BASO (C57B1/6J mice [2]; TCDD 6.9 μg/kg alone) was 0.21 ± 0.12 10^3 and the EOS (C57B1/6J mice [2]; TCDD 6.9 μg/kg alone) was 0.01 ± 0.01 10^3. The HCT (C57B1/6J mice [2]; TCDD 6.9 μg/kg alone) was 43.12 ± 5.04%, the HGB (C57B1/6J mice [2]; TCDD 6.9 μg/kg alone) was 13.65 ± 1.34 g/dL and the LYM (C57B1/6J mice [2]; TCDD 6.9 μg/kg alone) was 4.27 ± 2.05 10^3. The MCH (C57B1/6J mice [2]; TCDD 6.9 μg/kg alone) was 14.70 ± 0.41 pg, the MCHC (C57B1/6J mice [2]; TCDD 6.9 μg/kg alone) was 31.76 ± 0.70 g/dL and the MCV (C57B1/6J mice [2]; TCDD 6.9 μg/kg alone) was 46.33 ± 1.97 fL. For the same compound, the MONO (C57B1/6J mice [2]; TCDD 6.9 μg/kg alone) was 0.10 ± 0.07 10^3, the NEU (C57B1/6J mice [2]; TCDD 6.9 μg/kg alone) was 0.40 ± 0.24 10^3 and the PLT (C57B1/6J mice [2]; TCDD 6.9 μg/kg alone) was 1140.88 ± 133.39 10^3. For the same compound, the RBC (C57B1/6J mice [2]; TCDD 6.9 μg/kg alone) was 9.29 ± 0.85 10^6, the RDW (C57B1/6J mice [2]; TCDD 6.9 μg/kg alone) was 20.38 ± 1.21% and the WBC (C57B1/6J mice [2]; TCDD 6.9 μg/kg alone) was 5.94 ± 1.85 10^3. The BASO (C57B1/6J mice [2]; TCDD 27.5 μg/kg alone) was 0.17 ± 0.07 10^3, the EOS (C57B1/6J mice [2]; TCDD 27.5 μg/kg alone) was 0.018 ± 0.028 10^3 and the HCT (C57B1/6J mice [2]; TCDD 27.5 μg/kg alone) was 39.12 ± 3.25 %. For the same compound, the HGB (C57B1/6J mice [2]; TCDD 27.5 μg/kg alone) was 12.90 ± 1.00 g/dL, the LYM (C57B1/6J mice [2]; TCDD 27.5 μg/kg alone) was 1.43 ± 0.60** 10^3 and the MCH (C57B1/6J mice [2]; TCDD 27.5 μg/kg alone) was 14.17 ± 0.40 pg. The MCHC (C57B1/6J mice [2]; TCDD 27.5 μg/kg alone) was 33.02 ± 0.86 g/dL, the MCV (C57B1/6J mice [2]; TCDD 27.5 μg/kg alone) was 42.97 ± 0.56 fL and the MONO (C57B1/6J mice [2]; TCDD 27.5 μg/kg alone) was 0.07 ± 0.04 10^3. The NEU (C57B1/6J mice [2]; TCDD 27.5 μg/kg alone) was 2.58 ± 0.97** 10^3, the PLT (C57B1/6J mice [2]; TCDD 27.5 μg/kg alone) was 1473.17 ± 110.35** 10^3 and the RBC (C57B1/6J mice [2]; TCDD 27.5 μg/kg alone) was 9.10 ± 0.71 10^6. For the same compound, the RDW (C57B1/6J mice [2]; TCDD 27.5 μg/kg alone) was 20.97 ± 2.27% and the WBC (C57B1/6J mice [2]; TCDD 27.5 μg/kg alone) was 4.29 ± 1.05 10^3.
